Assay results from patent publication US10588317B2, “Isoxazoline-substituted benzamides and analogues as insecticides” (priority 2015, dated 2020).

Key:
Format in all cases: in vivo
Diabrotica balteata = Diabrotica balteata (corn root worm), sprayed maize sprouts; details: 96 h, application rate 200 ppm, L2 larvae, 4 days after infestation, read-out: effect in at least one of the two categories (mortality or growth inhibition)
Method in brief: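 Read-out at 4 days post-infestation: mortality and growth inhibition relative to untreated samples. Test solutions (200 ppm, from DMSO stocks) were sprayed onto agar-held maize sprouts, which after drying received 6–10 L2 larvae per well.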

Euschistus heros = Euschistus heros (neotropical brown stink bug), sprayed soybean leaves; details: 120 h, application rate 200 ppm, N2 nymphs, 5 days after infestation, read-out: effect in at least one of the two categories (mortality or growth inhibition)
Method in brief: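 Scored 5 days post-infestation versus untreated controls, for both mortality and growth inhibition: N2 nymphs placed on agar-mounted soybean leaves previously sprayed at 200 ppm with aqueous test solutions from DMSO stocks and left to dry.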

Myzus persicae = Myzus persicae (green peach aphid): feeding/contact activity; details: 144 h, application rate 200 ppm, aphid population of mixed ages, 6 days after infestation, read-out: mortality
Experimental: (§1) Sunflower leaf discs were placed onto agar in a 24-well microtiter plate and sprayed with aqueous test solutions prepared from 10'000 ppm DMSO stock solutions. After drying, the leaf discs were infested with an aphid population of mixed ages. The samples were assessed for mortality 6 days after infestation.

Plutella xylostella = Plutella xylostella (diamond back moth), artificial diet; details: 120 h, application rate 200 ppm, L2 larvae, 5 days after infestation, read-out: effect in at least one of the two categories (mortality or growth inhibition)
Method in brief: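 L2 larvae (10-15 per well) fed on compound-treated, dried artificial diet; test solutions diluted in water from 10'000 ppm DMSO stocks. Readout 5 days post-infestation as mortality or growth inhibition versus untreated diet, with at least 80% effect at 200 ppm as threshold.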

Spodoptera littoralis = Spodoptera littoralis (Egyptian cotton leaf worm), sprayed cotton leaf discs; details: foliar, 72 h, application rate 200 ppm, L1 larvae, 3 days after infestation, read-out: control (mortality, anti-feeding effect, growth inhibition)
Method in brief: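 Five first-instar larvae placed on dried cotton leaf discs (on agar) previously sprayed with aqueous dilutions of 10'000 ppm DMSO stocks. Scored at 3 days against untreated discs for mortality, feeding inhibition and growth inhibition; any category above untreated counts as control.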

Tetranychus urticae = Tetranychus urticae (two-spotted spider mite): feeding/contact activity; details: 192 h, application rate 200 ppm, mixed population (mobile stages), 8 days after infestation, read-out: mortality
Experimental: Bean leaf discs on agar in 24-well microtiter plates were sprayed with aqueous test solutions prepared from 10'000 ppm DMSO stock solutions. After drying the leaf discs were infested with a mite population of mixed ages. The samples were assessed for mortality on mixed population (mobile stages) 8 days after infestation.

Thrips tabaci = Thrips tabaci (onion thrips): feeding/contact activity; details: 144 h, application rate 200 ppm, Thrips population of mixed ages, 6 days after infestation, read-out: mortality
Experimental: as §1, with “on” for “onto”, “in” for “in a”, “plates” for “plate”, “drying” for “drying,”, “a Thrips” for “an aphid”

Cc1cc(C2=NO[C@@](c3cc(Cl)c(C(F)F)c(Cl)c3)(C(F)(F)F)C2)ccc1C(=O)N[C@@H]1CON(S(=O)(=O)N(C)C)C1 [Compound A196, 4-[(5S)-5-[3,5-dichloro-4-(difluoromethyl)phenyl]-5-(trifluoromethyl)-4H-1,2-oxazol-3-yl]-N-[(4S)-2-(dimethylsulfamoyl)-1,2-oxazolidin-4-yl]-2-methylbenzamide]
≥ 80%: percent effect (mortality or growth inhibition) at 200 ppm (Diabrotica balteata) | percent effect (mortality or growth inhibition) at 200 ppm (Euschistus heros) | mortality at 200 ppm (Myzus persicae) | percent effect (mortality or growth inhibition) at 200 ppm (Plutella xylostella) | mortality at 200 ppm (Spodoptera littoralis) | mortality at 200 ppm (Tetranychus urticae) | mortality at 200 ppm (Thrips tabaci)

CCCN(C)S(=O)(=O)N1CC(NC(=O)c2ccc(C3=NO[C@@](c4cc(Cl)c(Cl)c(Cl)c4)(C(F)(F)F)C3)cc2C)CO1 (stereo partly drawn) [Compound A84, 2-methyl-N-[2-[methyl(propyl)sulfamoyl]isoxazolidin-4-yl]-4-[(5S)-5-(3,4,5-trichlorophenyl)-5-(trifluoromethyl)-4H-isoxazol-3-yl]benzamide]
≥ 80%: percent effect (mortality or growth inhibition) at 200 ppm (Diabrotica balteata) | percent effect (mortality or growth inhibition) at 200 ppm (Euschistus heros) | mortality at 200 ppm (Myzus persicae) | percent effect (mortality or growth inhibition) at 200 ppm (Plutella xylostella) | mortality at 200 ppm (Spodoptera littoralis) | mortality at 200 ppm (Tetranychus urticae) | mortality at 200 ppm (Thrips tabaci)

Cc1cc(C2=NO[C@@](c3cc(Cl)c(F)c(Cl)c3)(C(F)(F)F)C2)ccc1C(=O)NC1CON(S(=O)(=O)N(C)C(C)(C)C)C1 (stereo partly drawn) [Compound A100, N-[2-[tert-butyl(methyl)sulfamoyl]isoxazolidin-4-yl]-4-[(5S)-5-(3,5-dichloro-4-fluoro-phenyl)-5-(trifluoromethyl)-4H-isoxazol-3-yl]-2-methyl-benzamide]
≥ 80%: percent effect (mortality or growth inhibition) at 200 ppm (Diabrotica balteata) | percent effect (mortality or growth inhibition) at 200 ppm (Euschistus heros) | mortality at 200 ppm (Myzus persicae) | percent effect (mortality or growth inhibition) at 200 ppm (Plutella xylostella) | mortality at 200 ppm (Spodoptera littoralis) | mortality at 200 ppm (Tetranychus urticae) | mortality at 200 ppm (Thrips tabaci)

COCCS(=O)(=O)N1CC(NC(=O)c2ccc(C3=NO[C@@](c4cc(Cl)c(F)c(Cl)c4)(C(F)(F)F)C3)cc2C)CO1 (some centres unmarked) [Compound A18]
≥ 80%: percent effect (mortality or growth inhibition) at 200 ppm (Diabrotica balteata) | percent effect (mortality or growth inhibition) at 200 ppm (Euschistus heros) | mortality at 200 ppm (Myzus persicae) | percent effect (mortality or growth inhibition) at 200 ppm (Plutella xylostella) | mortality at 200 ppm (Spodoptera littoralis) | mortality at 200 ppm (Tetranychus urticae) | mortality at 200 ppm (Thrips tabaci)

C#CCN(CC)S(=O)(=O)N1C[C@@H](NC(=O)c2ccc(C3=NO[C@@](c4cc(Cl)cc(Cl)c4)(C(F)(F)F)C3)cc2Cl)CO1 [Compound A161, 2-chloro-4-[(5S)-5-(3,5-dichlorophenyl)-5-(trifluoromethyl)-4H-isoxazol-3-yl]-N-[(4R)-2-[ethyl(prop-2-ynyl)sulfamoyl]isoxazolidin-4-yl]benzamide]
≥ 80%: percent effect (mortality or growth inhibition) at 200 ppm (Diabrotica balteata) | percent effect (mortality or growth inhibition) at 200 ppm (Euschistus heros) | mortality at 200 ppm (Myzus persicae) | percent effect (mortality or growth inhibition) at 200 ppm (Plutella xylostella) | mortality at 200 ppm (Spodoptera littoralis) | mortality at 200 ppm (Tetranychus urticae) | mortality at 200 ppm (Thrips tabaci)

Cc1cc(C2=NO[C@@](c3cc(Cl)cc(Cl)c3)(C(F)(F)F)C2)ccc1C(=O)N[C@@H]1CON(S(=O)(=O)CC(=O)O)C1 [Compound A174, 2-[[(4S)-4-[[4-[(5S)-5-(3,5-dichlorophenyl)-5-(trifluoromethyl)-4H-1,2-oxazol-3-yl]-2-methylbenzoyl]amino]-1,2-oxazolidin-2-yl]sulfonyl]acetic acid]
≥ 80%: percent effect (mortality or growth inhibition) at 200 ppm (Diabrotica balteata) | percent effect (mortality or growth inhibition) at 200 ppm (Euschistus heros) | mortality at 200 ppm (Myzus persicae) | percent effect (mortality or growth inhibition) at 200 ppm (Plutella xylostella) | mortality at 200 ppm (Spodoptera littoralis) | mortality at 200 ppm (Tetranychus urticae) | mortality at 200 ppm (Thrips tabaci)

Cc1cc(C2=NO[C@@](c3cc(Cl)c(F)c(Cl)c3)(C(F)(F)F)C2)ccc1C(=O)N[C@H]1CON(S(=O)(=O)CBr)C1 [Compound A189, N-[(4R)-2-(bromomethylsulfonyl)-1,2-oxazolidin-4-yl]-4-[(5S)-5-(3,5-dichloro-4-fluorophenyl)-5-(trifluoromethyl)-4H-1,2-oxazol-3-yl]-2-methylbenzamide]
≥ 80%: percent effect (mortality or growth inhibition) at 200 ppm (Diabrotica balteata) | percent effect (mortality or growth inhibition) at 200 ppm (Euschistus heros) | mortality at 200 ppm (Myzus persicae) | percent effect (mortality or growth inhibition) at 200 ppm (Plutella xylostella) | mortality at 200 ppm (Spodoptera littoralis) | mortality at 200 ppm (Tetranychus urticae) | mortality at 200 ppm (Thrips tabaci)

Cc1cc(C2=NO[C@@](c3cc(Cl)c(F)c(Cl)c3)(C(F)(F)F)C2)ccc1C(=O)NC1CON(S(=O)(=O)N(C)C(=O)N(C)C)C1 (some centres unmarked) [Compound A74]
≥ 80%: percent effect (mortality or growth inhibition) at 200 ppm (Diabrotica balteata) | percent effect (mortality or growth inhibition) at 200 ppm (Euschistus heros) | mortality at 200 ppm (Myzus persicae) | percent effect (mortality or growth inhibition) at 200 ppm (Plutella xylostella) | mortality at 200 ppm (Spodoptera littoralis) | mortality at 200 ppm (Tetranychus urticae) | mortality at 200 ppm (Thrips tabaci)

Cc1cc(C2=NO[C@@](c3cc(Cl)c(F)c(Cl)c3)(C(F)(F)F)C2)ccc1C(=O)N[C@@H]1CON(S(=O)(=O)CC(=O)O)C1 [Compound A200]
≥ 80%: percent effect (mortality or growth inhibition) at 200 ppm (Diabrotica balteata) | percent effect (mortality or growth inhibition) at 200 ppm (Euschistus heros) | mortality at 200 ppm (Myzus persicae) | percent effect (mortality or growth inhibition) at 200 ppm (Plutella xylostella) | mortality at 200 ppm (Spodoptera littoralis) | mortality at 200 ppm (Tetranychus urticae) | mortality at 200 ppm (Thrips tabaci)

Cc1cc(C2=NO[C@@](c3cc(Cl)c(C(F)F)c(Cl)c3)(C(F)(F)F)C2)ccc1C(=O)N[C@@H]1CON(S(C)(=O)=O)C1 [Compound A197, 4-[(5S)-5-[3,5-dichloro-4-(difluoromethyl)phenyl]-5-(trifluoromethyl)-4H-1,2-oxazol-3-yl]-2-methyl-N-[(4S)-2-methylsulfonyl-1,2-oxazolidin-4-yl]benzamide]
≥ 80%: percent effect (mortality or growth inhibition) at 200 ppm (Diabrotica balteata) | percent effect (mortality or growth inhibition) at 200 ppm (Euschistus heros) | mortality at 200 ppm (Myzus persicae) | percent effect (mortality or growth inhibition) at 200 ppm (Plutella xylostella) | mortality at 200 ppm (Spodoptera littoralis) | mortality at 200 ppm (Tetranychus urticae) | mortality at 200 ppm (Thrips tabaci)

Cc1cc(C2=NO[C@@](c3cc(Cl)c(F)c(Cl)c3)(C(F)(F)F)C2)ccc1C(=O)N[C@H]1CON(S(=O)(=O)N(C)CC(F)(F)F)C1 [Compound A150, 4-[(5S)-5-(3,5-dichloro-4-fluoro-phenyl)-5-(trifluoromethyl)-4H-isoxazol-3-yl]-2-methyl-N-[(4R)-2-[methyl(2,2,2-trifluoroethyl)sulfamoyl]isoxazolidin-4-yl]benzamide]
≥ 80%: percent effect (mortality or growth inhibition) at 200 ppm (Diabrotica balteata) | percent effect (mortality or growth inhibition) at 200 ppm (Euschistus heros) | mortality at 200 ppm (Myzus persicae) | percent effect (mortality or growth inhibition) at 200 ppm (Plutella xylostella) | mortality at 200 ppm (Spodoptera littoralis) | mortality at 200 ppm (Tetranychus urticae) | mortality at 200 ppm (Thrips tabaci)

Cc1cc(C2=NO[C@@](c3cc(Cl)c(F)c(Cl)c3)(C(F)(F)F)C2)ccc1C(=O)NC1CON(S(=O)(=O)N2CCCC2)C1 (stereo partly drawn) [Compound A99, 4-[(5S)-5-(3,5-dichloro-4-fluoro-phenyl)-5-(trifluoromethyl)-4H-isoxazol-3-yl]-2-methyl-N-(2-pyrrolidin-1-ylsulfonylisoxazolidin-4-yl)benzamide]
≥ 80%: percent effect (mortality or growth inhibition) at 200 ppm (Diabrotica balteata) | percent effect (mortality or growth inhibition) at 200 ppm (Euschistus heros) | mortality at 200 ppm (Myzus persicae) | percent effect (mortality or growth inhibition) at 200 ppm (Plutella xylostella) | mortality at 200 ppm (Spodoptera littoralis) | mortality at 200 ppm (Tetranychus urticae) | mortality at 200 ppm (Thrips tabaci)

Cc1cc(C2=NO[C@@](c3cc(Cl)c(F)c(Cl)c3)(C(F)(F)F)C2)ccc1C(=O)NC1CON(S(=O)(=O)C(C)C)C1 (some centres unmarked) [Compound A17]
≥ 80%: percent effect (mortality or growth inhibition) at 200 ppm (Diabrotica balteata) | percent effect (mortality or growth inhibition) at 200 ppm (Euschistus heros) | mortality at 200 ppm (Myzus persicae) | percent effect (mortality or growth inhibition) at 200 ppm (Plutella xylostella) | mortality at 200 ppm (Spodoptera littoralis) | mortality at 200 ppm (Tetranychus urticae) | mortality at 200 ppm (Thrips tabaci)

Cc1cc(C2=NO[C@@](c3cc(Cl)cc(Cl)c3)(C(F)(F)F)C2)ccc1C(=O)N[C@@H]1CON(S(=O)(=O)C2CC2)C1 [Compound A230]
≥ 80%: percent effect (mortality or growth inhibition) at 200 ppm (Diabrotica balteata) | percent effect (mortality or growth inhibition) at 200 ppm (Euschistus heros) | mortality at 200 ppm (Myzus persicae) | percent effect (mortality or growth inhibition) at 200 ppm (Plutella xylostella) | mortality at 200 ppm (Spodoptera littoralis) | mortality at 200 ppm (Tetranychus urticae) | mortality at 200 ppm (Thrips tabaci)
